What was measured:
GLO1 [1] = biological target: T1, GLO1 (Homo sapiens, UniProt Q04760); experiment: fluorescence spectroscopy; format: binding; settings: 298 K, 5 μM GLO1
T1 sequence (Q04760 2-184): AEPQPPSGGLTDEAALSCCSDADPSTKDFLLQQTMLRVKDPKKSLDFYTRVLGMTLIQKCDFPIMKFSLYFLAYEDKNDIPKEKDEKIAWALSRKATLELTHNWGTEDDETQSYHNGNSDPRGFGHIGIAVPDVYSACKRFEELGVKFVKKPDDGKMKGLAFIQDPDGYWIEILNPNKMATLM

GLO1 in PC12 cells = biological target: T2, GLO1 in PC12 cells (Rattus norvegicus, UniProt Q6P7Q4); experiment: cellular thermal shift assay; format: cell-based; settings: half-maximal thermal stabilization
T2 sequence (Q6P7Q4 2-184): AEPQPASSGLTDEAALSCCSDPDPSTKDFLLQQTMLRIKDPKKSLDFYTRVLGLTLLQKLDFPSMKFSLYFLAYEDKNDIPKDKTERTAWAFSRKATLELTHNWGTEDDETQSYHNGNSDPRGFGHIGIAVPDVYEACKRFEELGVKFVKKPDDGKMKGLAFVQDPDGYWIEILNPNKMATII

GLO1 [2] = biological target: T1, GLO1; experiment: fluorescence spectroscopy; format: binding

O=c1cc(-c2ccc(O)c(O)c2)oc2cc(O)cc(O)c12 [luteolin]
Ka (GLO1 [1]): 21200 L/mol | EC50 (GLO1 in PC12 cells): 45.2 µM | Kd (GLO1 [2]): 47.2 µM
